US9809574B2, “Isoindoline or isoquinoline compounds, a process for their preparation and pharmaceutical compositions containing them” (LES LABORATOIRES SERVIER, priority 2013, dated 2017)

Assays:
[1] = molecular target: Bcl-2 protein (histag-Bcl-2, UniProtKB P10415) (Homo sapiens (Human), UniProt P10415); assay: Inhibition of Bcl-2 by the fluorescence polarisation technique; type: binding; settings: fluorescence polarisation test; incubation for 2 hours; read-out: IC50 (nM) Bcl-2 FP
Source text: For partial inhibitors, the percentage fluorescence polarisation inhibition for a given concentration of the test compound is indicated.

[2] = system: RS4; 11 leukaemia cell line; assay: In vitro cytotoxicity, Microculture Tetrazolium Assay (MTT); type: cell-based; settings: Homo sapiens, 11 cells exposed for 48 hours
Description: The cytotoxicity studies were carried out on the RS4; 11 leukaemia cell line and on H146 small Cell Lung Carcinoma cell line. The cells are distributed onto microplates and exposed to the test compounds for 48 hours. The cell viability is then quantified by a colorimetric assay, the Microculture Tetrazolium Assay (Cancer Res., 1987, 47, 939-942).

Sequence of Bcl-2 protein (P10415 whole entry): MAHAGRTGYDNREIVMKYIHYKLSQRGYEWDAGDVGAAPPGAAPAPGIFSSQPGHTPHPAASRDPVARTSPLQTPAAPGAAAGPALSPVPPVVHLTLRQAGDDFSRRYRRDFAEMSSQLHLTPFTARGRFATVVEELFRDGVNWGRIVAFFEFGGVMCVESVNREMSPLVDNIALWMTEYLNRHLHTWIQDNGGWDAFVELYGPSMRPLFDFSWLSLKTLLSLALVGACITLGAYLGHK

Row | IC50 [1] | SMILES | IC50 [2]
1 | 33 nM | C[C@@H]1Cc2ccccc2CN1C(=O)c1cc2c(cc1-c1cc(C(=O)N(C)c3ccc(O)cc3)c3n1CCCC3)CN(Cc1ccccc1)C2 [Example 33, 3-{2-Benzyl-6-[(3R)-3-methyl-1,2,3,4-tetrahydroisoquinoline-2-carbonyl]-2,3-dihydro-1H-isoindol-5-yl}-N-(4-hydroxyphenyl)-N-methyl-5,6,7,8-tetrahydroindolizine-1-carboxamide] | 460 nM
2 | 4.9 nM | CCC(=O)N1CCc2cc(-c3cc(C(=O)N(C)c4ccc(O)cc4)c4n3CCCC4)c(C(=O)N3Cc4ccccc4C[C@H]3C)cc2C1 [Example 34, N-(4-Hydroxyphenyl)-N-methyl-3-{7-[(3R)-3-methyl-1,2,3,4-tetrahydroisoquinoline-2-carbonyl]-2-propanoyl-1,2,3,4-tetrahydroisoquinolin-6-yl}-5,6,7,8-tetrahydroindolizine-1-carboxamide] | 19 nM
3 | 4.7 nM | C[C@@H]1Cc2ccccc2CN1C(=O)c1cc2c(cc1-c1cc(C(=O)N(C)c3ccc(O)cc3)c3n1CCCC3)CCN(C(=O)c1ccccc1)C2 [Example 35, 3-{2-Benzoyl-7-[(3R)-3-methyl-1,2,3,4-tetrahydroisoquinoline-2-carbonyl]-1,2,3,4-tetrahydroisoquinolin-6-yl}-N-(4-hydroxyphenyl)-N-methyl-5,6,7,8-tetrahydroindolizine-1-carboxamide] | 8.5 nM
4 | 4.8 nM | C[C@@H]1Cc2ccccc2CN1C(=O)c1cc2c(cc1-c1cc(C(=O)N(C)c3ccc(O)cc3)c3n1CCCC3)CCN(C(=O)Cc1ccccc1)C2 [Example 36, N-(4-Hydroxyphenyl)-N-methyl-3-{7-[(3R)-3-methyl-1,2,3,4-tetrahydroisoquinoline-2-carbonyl]-2-(2-phenylacetyl)-1,2,3,4-tetrahydroisoquinolin-6-yl}-5,6,7,8-tetrahydroindolizine-1-carboxamide] | 6.2 nM
5 | 4.9 nM | C[C@@H]1Cc2ccccc2CN1C(=O)c1cc2c(cc1-c1cc(C(=O)N(C)c3ccc(O)cc3)c3n1CCCC3)CCN(C(=O)CCc1ccccc1)C2 [Example 37, N-(4-Hydroxyphenyl)-N-methyl-3-{7-[(3R)-3-methyl-1,2,3,4-tetrahydroisoquinoline-2-carbonyl]-2-(3-phenylpropanoyl)-1,2,3,4-tetrahydroisoquinolin-6-yl}-5,6,7,8-tetrahydroindolizine-1-carboxamide] | 18 nM
6 | 23 nM | CN(C(=O)c1cc(-c2cc3c(cc2C(=O)N2Cc4ccccc4C[C@H]2CN2CCOCC2)CN(S(=O)(=O)Cc2ccccc2)C3)n2c1CCCC2)c1ccc(O)cc1 [Example 38, N-(4-Hydroxyphenyl)-N-methyl-3-{6-[(3S)-3-(morpholin-4-ylmethyl)-1,2,3,4-tetrahydroisoquinoline-2-carbonyl]-2-phenylmethanesulfonyl-2,3-dihydro-1H-isoindol-5-yl}-5,6,7,8-tetrahydroindolizine-1-carboxamide] | 532 nM
7 | 14 nM | C[C@@H]1Cc2ccccc2CN1C(=O)c1cc2c(cc1-c1cc(C(=O)N(C)c3ccc(O)cc3)c3n1CCCC3)CCN(S(=O)(=O)c1ccccc1)C2 [Example 39, 3-[2-(Benzenesulfonyl)-7-[(3R)-3-methyl-1,2,3,4-tetrahydroisoquinoline-2-carbonyl]-1,2,3,4-tetrahydroisoquinolin-6-yl]-N-(4-hydroxyphenyl)-N-methyl-5,6,7,8-tetrahydroindolizine-1-carboxamide] | 106 nM
8 | 3.6 nM | C[C@@H]1Cc2ccccc2CN1C(=O)c1cc2c(cc1-c1cc(C(=O)N(C)c3ccc(O)cc3)c3n1CCCC3)CCN(S(=O)(=O)Cc1ccccc1)C2 [Example 40, N-(4-Hydroxyphenyl)-N-methyl-3-{7-[(3R)-3-methyl-1,2,3,4-tetrahydroisoquinoline-2-carbonyl]-2-phenylmethanesulfonyl-1,2,3,4-tetrahydroisoquinolin-6-yl}-5,6,7,8-tetrahydroindolizine-1-carboxamide] | 34 nM
9 | 26 nM | C[C@@H]1Cc2ccccc2CN1C(=O)c1cc2c(cc1-c1cc(C(=O)N(C)c3ccc(O)cc3)c3n1CCCC3)CCN(S(=O)(=O)c1ccc3ccccc3c1)C2 [Example 41, N-(4-Hydroxyphenyl)-N-methyl-3-{7-[(3R)-3-methyl-1,2,3,4-tetrahydroisoquinoline-2-carbonyl]-2-(naphthalene-2-sulfonyl)-1,2,3,4-tetrahydroisoquinolin-6-yl}-5,6,7,8-tetrahydroindolizine-1-carboxamide] | 78 nM
10 | 38 nM | CN(C(=O)c1cc(-c2cc3c(cc2C(=O)N2Cc4ccccc4C[C@H]2CN2CCOCC2)CN(C(=O)Cc2cccnc2)C3)n2c1CCCC2)c1ccc(O)cc1 [Example 42, N-(4-Hydroxyphenyl)-N-methyl-3-{6-[(3S)-3-(morpholin-4-ylmethyl)-1,2,3,4-tetrahydroisoquinoline-2-carbonyl]-2-[2-(pyridin-3-yl)acetyl]-2,3-dihydro-1H-isoindol-5-yl}-5,6,7,8-tetrahydroindolizine-1-carboxamide] | > 150 nM
11 | 77 nM | C[C@@H]1Cc2ccccc2CN1C(=O)c1cc2c(cc1-c1cc(C(=O)N(c3ccccc3)c3ccc(O)cc3)c3n1CCCC3)CN(C(=O)OC(C)(C)C)C2 [Example 43, tert-Butyl 5-{1-[(4-hydroxyphenyl)(phenyl)carbamoyl]-5,6,7,8-tetrahydroindolizin-3-yl}-6-[(3R)-3-methyl-1,2,3,4-tetrahydroisoquinoline-2-carbonyl]-2,3-dihydro-1H-isoindole-2-carboxylate] | 502 nM
12 | 13 nM | C[C@@H]1Cc2ccccc2CN1C(=O)c1cc2c(cc1-c1cc(C(=O)N(c3ccccc3)c3ccc(O)cc3)c3n1CCCC3)CNC2 [Example 44, N-(4-Hydroxyphenyl)-3-{6-[(3R)-3-methyl-1,2,3,4-tetrahydroisoquinoline-2-carbonyl]-2,3-dihydro-1H-isoindol-5-yl}-N-phenyl-5,6,7,8-tetrahydroindolizine-1-carboxamide] | 443 nM
13 | 15 nM | C[C@@H]1Cc2ccccc2CN1C(=O)c1cc2c(cc1-c1cc(C(=O)N(C)c3ccc(O)cc3)c3n1CCCC3)CN(C(=O)Oc1ccccc1)C2 [Example 45, Phenyl 5-{1-[(4-hydroxyphenyl)(methyl)carbamoyl]-5,6,7,8-tetrahydroindolizin-3-yl}-6-[(3R)-3-methyl-1,2,3,4-tetrahydroisoquinoline-2-carbonyl]-2,3-dihydro-1H-isoindole-2-carboxylate] | 20 nM
14 | 3.7 nM | C[C@@H]1Cc2ccccc2CN1C(=O)c1cc2c(cc1-c1cc(C(=O)N(C)c3ccc(O)cc3)c3n1CCCC3)CCN(C(=O)Oc1ccccc1)C2 [Example 46, Phenyl 6-{1-[(4-hydroxyphenyl)(methyl)carbamoyl]-5,6,7,8-tetrahydroindolizin-3-yl}-7-[(3R)-3-methyl-1,2,3,4-tetrahydroisoquinoline-2-carbonyl]-1,2,3,4-tetrahydroisoquinoline-2-carboxylate] | 2.8 nM
15 | 12 nM | C[C@@H]1Cc2ccccc2CN1C(=O)c1cc2c(cc1-c1cc(C(=O)N(C)c3ccc(O)cc3)c3n1CCCC3)CCN(C(=O)OC(C)(C)C)C2 [Example 47, tert-Butyl 6-{1-[(4-hydroxyphenyl)(methyl)carbamoyl]-5,6,7,8-tetrahydroindolizin-3-yl}-7-[(3R)-3-methyl-1,2,3,4-tetrahydroisoquinoline-2-carbonyl]-1,2,3,4-tetrahydroisoquinoline-2-carboxylate] | 45 nM
